Experimental data from patent US20030191147A1, “Opioid antagonist compositions and dosage forms” (priority 2002, published 2003).

Key:
[1] = tested on: moderate to severe pain following dental surgery; assay: Dose ranging clinical study of morphine 30, 60, 90 mg alone or with NTX 0.1 mg; type: in vivo, human; settings: 30 mg, 60 mg and 90 mg MS alone compared with each other
Method: In this dose ranging study, doses of morphine sulfate (30 mg, 60 mg, and 90 mg) in combination with naltrexone hydrochloride (0.1 mg) were administered for moderate to severe pain in male patients following dental surgery. This study was performed to investigate the efficacy of combinations of different doses of morphine with naltrexone 0.1 mg, relative to placebo and relative to morphine alone, to evaluate the dose-response effects of morphine when administered alone and when coadministered with naltrexone 0.1 mg, and to examine the consistency of effect of naltrexone 0.1 mg across different doses of morphine, when coadministered with morphine.
The 210 subject study was designed with seven treatment groups: A) placebo (30 pts); B) morphine 30 mg (30 pts); C) morphine 60 mg (30 pts); D) morphine 90 mg (30 pts); E) morphine 30 mg and naltrexone 0.1 mg (30 pts); F) morphine 60 mg and naltrexone 0.1 mg (30 pts); G) morphine 90 mg and naltrexone 0.1 mg (30 pts). In this study, in the treatment of moderate to severe pain following extraction of 3 or 4 full or partial bony impacted third molars, a single oral dose of one of the treatments was administered when the patient was suffering moderate to severe postoperative pain. The observation period for efficacy was 8 hours post treatment and for safety was 24 hours post treatment. […]

[2] = Binding of drug in solution to pharmaceutical excipients
postsurgical patients = settings: PCA/IV morphine with low dose IV antagonist; cited from earlier work
[3] = tested on: moderate to severe pain following dental surgery; assay: Dose ranging clinical study of morphine 60 mg with NTX 0.1, 0.01 or 0.001 mg, and NTX alone; type: in vivo, human; settings: NTX 0.01 mg alone, among treatment groups
Method: In a dose ranging study, doses of morphine sulfate (60 mg) in combination with naltrexone hydrochloride (0.1 mg, 0.01 mg, or 0.001 mg) were administered for moderate to severe pain in patients following dental surgery. This study was performed to investigate the analgesic efficacy (onset, peak, duration, and total effect) of morphine alone, naltrexone alone, three different doses of naltrexone in combination with morphine and placebo.
The 300 subject study was designed with six treatment groups: A) placebo (50 pts); B) morphine 60 mg (50 pts); C) naltrexone 0.01 mg (50 pts); D) morphine 60 mg and naltrexone 0.1 mg (50 pts); E) morphine 60 mg and naltrexone 0.01 mg (50 pts); F) morphine 60 mg and naltrexone 0.001 mg (50 pts). In this study, in the treatment of moderate to severe pain following extraction of 3 or 4 full or partial bony impacted third molars, a single oral dose of one of the treatments was administered when the patient was suffering moderate to severe postoperative pain. The observation period for efficacy was 8 hours post treatment, and for safety was 24 hours post treatment.
The efficacy and safety evaluations included pain intensity, pain relief, global pain evaluation, evaluation of time to meaningful pain relief (stopwatch), visual analog scale (VAS), and adverse event assessments. For the data analysis, certain pain parameters were computed as generally described above.

[4] = tested on: excitatory opioid receptors; settings: mice, antagonist on the order of ng/kg with morphine or similar opioid agonists; cited from earlier work
[5] = excipients of Example 10, aqueous environment
[6] = excipients of Example 12, aqueous environment

Question: What does the source list for `CN1CC[C@]23c4c5ccc(O)c4O[C@H]2[C@@H](O)C=C[C@H]3[C@H]1C5.O=S(=O)(O)O` [MS, morphine sulfate]?
Answer: mean SPID scores [1]: comparable; mean Total Pain Relief scores [1]: comparable; binding to croscarmellose sodium ([2]; croscarmellose sodium): also bound to this excipient; binding by the excipients used [2, 5]: not to bind; binding by the excipients used [2, 6]: not to bind

Question: Which “effect on potency of morphine” value (postsurgical patients) does the source give for `C=C1CC[C@@]2(O)[C@H]3Cc4ccc(O)c5c4[C@@]2(CCN3CC2CC2)[C@H]1O5` [nalmefene, 6-methylene-6-desoxy-N-cyclopropyl-methyl-14-hydroxydihydroxy-dihydronormorphine] here?
Answer: The value was “markedly enhanced potency of morphine”.

Question: Which “effect on potency of morphine” value (postsurgical patients) does the source give for `C=CCN1CC[C@]23c4c5ccc(O)c4O[C@H]2C(=O)CC[C@@]3(O)[C@H]1C5` [naloxone, 4,5-epoxy-3,14-dihydroxy-17-(2-prophenyl)morphinan-6-one] here?
Answer: The value was “markedly enhanced potency of morphine”.

Question: For `Cl.O=C1CC[C@@]2(O)[C@H]3Cc4ccc(O)c5c4[C@@]2(CCN3CC2CC2)[C@H]1O5` [naltrexone hydrochloride, 17-cyclopropylmethyl-4,5α-epoxy-3,14-dihydroxymorphinan-6-one hydrochloride], which global evaluation scores [3] is on record?
Answer: The global evaluation scores was “highest number of subjects who had “poor” global evaluation scores”.

Question: And the “mean 4 hour Sum of Pain Intensity Difference (SPID) scores” value [3]?
Answer: The value was “lowest”.

Question: And the “mean Total Pain Relief scores” value [3]?
Answer: The value was “lowest”.

Question: And the “fraction of drug bound by croscarmellose sodium” value ([2]; drug in solution mixed with croscarmellose sodium in suspension)?
Answer: Its value is “more than 90%”.

Question: What about the “binding by the excipients used” value [2, 5] of the same molecule?
Answer: The value was “not to bind”.

Question: And the “binding by the excipients used” value [2, 6]?
Answer: The value was “not to bind”.

Question: And the “effect on analgesic potency of opioid agonists” value [4]?
Answer: The value was “markedly enhancing the analgesic potency of opioid agonists”.
